Data reported in patent US20030199590A1, “Prostaglandin analogues for promotion of hair growth” (priority 2002, published 2003).
Like-named read-outs stand apart in the source and are kept apart here.

Key:
[1] = biological target: T1, FP receptors (Bos taurus, UniProt P37289); experiment: FP receptor binding assay ([3H]PGF2α, bovine corpus luteum membranes); details: for IC50: Table 1, [3H]PGF2α, bovine corpus luteum membranes, free acid form; for Ki: Table 2, FP receptor binding
T1 construct: Washed total particulate bovine corpus luteum membranes; from tissue; host or cells: bovine corpus luteum membranes
T1 sequence (P37289 whole entry): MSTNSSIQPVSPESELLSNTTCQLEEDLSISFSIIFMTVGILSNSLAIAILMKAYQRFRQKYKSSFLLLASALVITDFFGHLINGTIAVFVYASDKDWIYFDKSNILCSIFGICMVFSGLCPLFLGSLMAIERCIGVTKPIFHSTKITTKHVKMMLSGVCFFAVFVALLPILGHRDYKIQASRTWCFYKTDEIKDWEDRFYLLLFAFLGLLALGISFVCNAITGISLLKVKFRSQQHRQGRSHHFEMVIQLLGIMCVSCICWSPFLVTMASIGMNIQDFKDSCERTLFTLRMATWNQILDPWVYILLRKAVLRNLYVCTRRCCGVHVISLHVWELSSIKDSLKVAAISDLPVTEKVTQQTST
Procedure: Non-specific binding was defined with 1-10 μM unlabeled PGF2α or fluprostenol. The assays were terminated by vacuum filtration (using Whatman GF/B glass fiber filter previously soaked in 0.3% polyethyleneimine) and the data analyzed by a non-linear, iterative, curve-fitting computer program.

[2] = biological target: T2, FP receptors (Swiss 3T3 cells expressing FP receptors) (Mus musculus, UniProt P43117); experiment: FP receptor-mediated phosphoinositide turnover assay; type: cell-based; details: for Emax: Swiss-3T3, 1 h, efficacy relative to standard full agonist (100%), read-out: FP functional (%) agonistic activity; for EC50: [3H]-IPs in Swiss 3T3 cells; for % response: efficacy relative to standard
T2 construct: endogenous in cells; host or cells: Swiss 3T3 cells
T2 sequence (P43117 whole entry): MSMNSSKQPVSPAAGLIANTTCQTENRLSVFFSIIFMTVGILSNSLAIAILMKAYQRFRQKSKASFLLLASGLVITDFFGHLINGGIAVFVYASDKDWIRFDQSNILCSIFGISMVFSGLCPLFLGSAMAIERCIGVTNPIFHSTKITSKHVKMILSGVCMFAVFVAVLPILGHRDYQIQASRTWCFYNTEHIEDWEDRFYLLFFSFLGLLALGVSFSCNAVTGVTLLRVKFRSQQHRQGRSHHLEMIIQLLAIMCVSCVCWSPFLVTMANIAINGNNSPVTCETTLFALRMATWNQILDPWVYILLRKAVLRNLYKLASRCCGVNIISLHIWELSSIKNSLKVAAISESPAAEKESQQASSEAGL
Procedure: FP receptor-mediated phosphoinositide turnover assay: [^3H]Inositol phosphates ([^3H]-IPs) produced by agonist-mediated activation of phospholipase C in Swiss 3T3 cells expressing FP receptors were quantified as follows. Confluent 3T3 cells were exposed to 1.0-1.5 μCi [^3H]-myo-inositol (18.3 Ci/mmol) in 0.5 ml DMEM for 24-30 hours at 37° C. Then cells were rinsed once with DMEM/F-12 containing 10 mM LiCl, and the agonist stimulation experiment was performed in 0.5 ml of the same medium to facilitate accumulation of [^3H]-IPs. Cells were exposed to the agonist or solvent for 60 min at 37° C. (triplicate determinations), followed by aspiration of the medium and immediate addition of 1 ml of ice-cold 0.1 M formic acid. The plates were kept cold and then frozen. Samples frozen up to one week were thawed prior to chromatographic separation of radiolabeled components. The cell lysates (0.9 ml) were loaded on columns packed with approximately 1 ml AG 1-X8 anion exchange resin. The elution procedure consisted of a wash with 10 ml of H2O, then 8 ml of 50 mM ammonium formate, and finally 4 ml of 1.2 M ammonium formate with 0.1 M formic acid, which was collected in a scintillation vial. To this eluate was added 15 ml of scintillation fluid and the total [^3H]-IPs determined by scintillation counting on a beta-counter. Data were analyzed by the sigmoidal fit function of the Origin Scientific Graphics software (Microcal Software, Northampton, Mass.) to determine agonist potency (EC50 value) and efficacy, relative to the standard cloprostenol.

[3] = Table 1, read-out: FP functional EC50

SMILES	IC50 [1] [nM]	Emax ([2]; Table 1) [%]	EC50 [2, 3] [nM]	Ki [1] [nM]	EC50 ([2]; Table 2, read-out: EC50) [nM]	% response ([2]; Table 2) [%]
O=C(O)CCC/C=C\C[C@H]1CC[C@@H](O)[C@@H]1/C=C/[C@@H](O)CCc1ccccc1 [Compound 1]	96	87.6	19.6	–	–	–
O=C(O)CCC/C=C\C[C@H]1CC[C@@H](O)[C@@H]1CC[C@@H](O)CCc1ccccc1 [Compound 2]	310	60	76.6	–	–	–
O=C(O)CCC/C=C\C[C@H]1CC[C@@H](O)[C@@H]1/C=C/[C@@H](O)COc1cccc(Cl)c1 [Compound 6]	10	100	2.6	–	–	–
O=C(O)CCC/C=C\C[C@H]1CC[C@@H](O)[C@@H]1CC[C@@H](O)CCc1cccc(Cl)c1 [Compound 8]	47	84	6.6	–	–	–
O=C(O)CCC/C=C\C[C@H]1CC[C@@H](O)[C@@H]1CC[C@@H](O)C1Cc2ccccc2C1 [Compound 11]	1900	60	108	–	–	–
O=C(O)CCC/C=C\C[C@H]1[C@@H](O)CO[C@@H]1/C=C/[C@H](O)COc1cccc(Cl)c1 [Compound 14]	7300	67	194	–	–	–
O=C(O)CCC/C=C\C[C@H]1[C@@H](O)CO[C@@H]1/C=C/[C@@H](O)COc1cccc(Cl)c1 [Compound 15]	890	88	58	–	–	–
O=C(O)CCC/C=C\C[C@@H]1[C@@H](CC[C@@H](F)COc2cccc(Cl)c2)[C@H](O)C[C@@H]1O [Compound 17]	26	64	9	–	–	–
O=C(O)CCCCCC[C@H]1C(=O)CO[C@@H]1/C=C/[C@@H](O)COc1ccccc1 [Compound 20]	9700	67	–	–	–	–
O=C(O)CCCCCC[C@H]1C(=O)CO[C@@H]1/C=C/[C@H](O)COc1ccccc1 [Compound 21]	78000	–	> 10000	–	–	–
O=C(O)CCC/C=C\C[C@@H]1[C@@H](CC[C@@H](F)COc2cccc(C(F)(F)F)c2)[C@H](O)C[C@@H]1O [Compound 24]	230	85	12.5	–	–	–
O=C(O)CCC/C=C\C[C@H]1[C@@H](O)CO[C@@H]1/C=C/[C@@H](O)COc1cccc(C(F)(F)F)c1 [Compound 26]	1800	74	187	–	–	–
O=C(O)CCC/C=C\C[C@H]1[C@@H](O)CO[C@@H]1/C=C/[C@H](O)COc1cccc(C(F)(F)F)c1 [Compound 27]	15000	43	889	–	–	–
O=C(O)CCC/C=C\C[C@H]1[C@@H](O)CO[C@@H]1/C=C/[C@@H](O)CCc1ccccc1 [Compound 28]	1900	100	80	–	–	–
O=C(O)CCC/C=C\C[C@H]1[C@@H](O)CO[C@@H]1/C=C/[C@H](O)COc1ccccc1 [Compound 32]	573	100	48.6	–	–	–
O=C(O)CCC/C=C\C[C@H]1[C@@H](O)CO[C@@H]1/C=C/[C@@H](O)COc1ccccc1 [Compound 33]	640	67	293	–	–	–
O=C(O)CCC/C=C\C[C@H]1[C@@H](O)CO[C@@H]1/C=C/[C@H](O)COc1ccc(F)cc1 [Compound 36]	4600	75	1240	–	–	–
O=C(O)CCC/C=C\C[C@H]1[C@@H](O)CO[C@@H]1/C=C/[C@@H](O)COc1ccc(F)cc1 [Compound 37]	1400	78	437	–	–	–
O=C(O)CCC/C=C\C[C@@H]1C(C#C[C@H](O)COc2cccc(Cl)c2)OC[C@@H]1O (stereo partly drawn) [Compound 38]	36000	–	> 10000	–	–	–
O=C(O)CCC/C=C\C[C@@H]1C(C#C[C@@H](O)COc2cccc(Cl)c2)OC[C@@H]1O (stereo partly drawn) [Compound 39]	5100	100	509	–	–	–
O=C(O)CC/C=C\CC[C@H]1[C@@H](O)CO[C@@H]1/C=C/[C@@H](O)COc1cccc(Cl)c1 [Compound 40]	430	82	23	–	–	–
O=C(O)CCC/C=C\C[C@@H]1[C@@H](CC[C@@H](F)COc2ccccc2)[C@H](O)C[C@@H]1O [Compound 45]	52	79	9.5	–	–	–

SMILES	IC50 [1] [nM]	Emax ([2]; Table 1) [%]	EC50 [2, 3] [nM]	Ki [1] [nM]	EC50 ([2]; Table 2, read-out: EC50) [nM]	% response ([2]; Table 2) [%]
O=C(O)CC/C=C\CC[C@H]1[C@@H](O)CO[C@@H]1/C=C/[C@H](O)COc1ccccc1 [Compound 50]	5100	59	252	–	–	–
O=C(O)CC/C=C\CC[C@H]1[C@@H](O)CO[C@@H]1/C=C/[C@H](O)COc1cccc(C(F)(F)F)c1 [Compound 51]	9900	61	781	–	–	–
O=C(O)CC/C=C\CC[C@H]1[C@@H](O)CO[C@@H]1/C=C/[C@@H](O)COc1ccccc1 [Compound 52]	330	83	57	–	–	–
O=C(O)CC/C=C\CC[C@H]1[C@@H](O)CO[C@@H]1/C=C/[C@@H](O)COc1cccc(C(F)(F)F)c1 [Compound 53]	350	92	96	–	–	–
O=C(O)CC/C=C\CC[C@H]1[C@@H](O)CO[C@@H]1/C=C/[C@H](O)COc1cccc(Cl)c1 [Compound 54]	818	71	249	–	–	–
O=C(O)CCC/C=C\C[C@@H]1[C@@H](/C=C/[C@@H](F)COc2ccccc2)[C@H](O)C[C@@H]1O [Compound 57]	267	104	3.8	–	–	–
O=C(O)CCC/C=C\C[C@@H]1[C@@H](/C=C/[C@H](F)COc2ccccc2)[C@H](O)C[C@@H]1O [Compound 60]	1120	98	96	–	–	–
O=C(O)CCC/C=C\C[C@@H]1[C@@H](/C=C/[C@H](F)COc2cccc(Cl)c2)[C@H](O)C[C@@H]1O [Compound 62]	182	76	81	–	–	–
O=C(O)CCC/C=C\C[C@@H]1[C@@H](/C=C/[C@@H](F)COc2cccc(Cl)c2)[C@H](O)C[C@@H]1O [Compound 63]	238	84	2.2	–	–	–
O=C(O)CCC/C=C\C[C@@H]1[C@@H](OC[C@@H](O)COc2cccc(Cl)c2)[C@H](O)C[C@@H]1O [Compound 65]	540	91	57.8	–	–	–
O=C(O)CCC/C=C\C[C@@H]1[C@@H](OC[C@H](O)COc2cccc(Cl)c2)[C@H](O)C[C@@H]1O [Compound 66]	4340	56	503	–	–	–
O=C(O)CCC/C=C\C[C@@H]1[C@@H](OC[C@@H](O)COc2ccccc2)[C@H](O)C[C@@H]1O [Compound 69]	277	57	56	–	–	–
O=C(O)CCC/C=C\C[C@@H]1[C@@H](OC[C@H](O)COc2ccccc2)[C@H](O)C[C@@H]1O [Compound 70]	1070	57	166	–	–	–
O=C(O)CC/C=C\CC[C@@H]1[C@@H](CC[C@@H](F)COc2ccccc2)[C@H](O)C[C@@H]1O [Compound 74]	690	67	8.8	–	–	–
O=C(O)CCC/C=C\C[C@@H]1[C@@H](/C=C/[C@@H](F)COc2cccc(C(F)(F)F)c2)[C@H](O)C[C@@H]1O [Compound 75]	160	83	11.1	–	–	–
O=C(O)CCC/C=C\C[C@@H]1[C@@H](/C=C/[C@H](F)COc2cccc(C(F)(F)F)c2)[C@H](O)C[C@@H]1O [Compound 76]	4200	44.5	131	–	–	–
O=C(O)CCC/C=C\C[C@@H]1[C@@H](/C=C/[C@@H](O)COc2cccc(Cl)c2)[C@H](O)C[C@@H]1O [Compound 81]	–	–	–	91	1.4	100
O=C(O)CCC/C=C\C[C@@H]1[C@@H](/C=C/[C@@H](O)COc2cccc(C(F)(F)F)c2)[C@H](O)C[C@@H]1O [Compound 82]	–	–	–	35	3.8	96
O=C(O)CCC/C=C\C[C@@H]1[C@@H](CC[C@@H](O)COc2cccc(Cl)c2)[C@H](O)C[C@@H]1O [Compound 83]	–	–	–	50	4	100
O=C(O)CCC/C=C\C[C@@H]1[C@@H](CC[C@H](O)COc2cccc(Cl)c2)[C@H](O)C[C@@H]1O [Compound 84]	–	–	–	130	210	76
O=C(O)CCCCCC[C@@H]1[C@@H](CC[C@@H](O)COc2cccc(Cl)c2)[C@H](O)C[C@@H]1O [Compound 85]	–	–	–	220	23	100
